# Results as given in US20260007712A1, “COMPOSITION FOR PREVENTING, AMELIORATING OR TREATING PERIODONTAL DISEASES” (NUTRACORE CO., LTD., priority 2022, published 2026).
# Key:
# Format in all cases: in vivo
# [1] = test system: collagen fibers in gingival tissue; experiment: Collagen fiber content in gingival tissue, EPD rat model; details: EPD rats; extracts 200 mg/kg, IND 5 mg/kg, oral once daily for 10 days; FIG. 6
# Excerpt: (§1) In this study, as part of the development of functional food ingredients derived from natural products to improve periodontitis and periodontal bone damage, three types of natural product extracts, dried rehmanniae radix, wasabi leaf, and Sancho extracts, that are well known for various physiological activities, including anti-inflammatory and antioxidant effects were compared and explored using a tooth neck ligation rat periodontal disease (experimental periodontitis; EPD) model to investigate the efficacy against periodontitis and periodontal bone loss.
# (§2) Specifically, a total of 121 SPF/VAF Outbred Crl:CD [SD] male rats (OrientBio, Seungnam, Korea) were obtained, and after acclimatization for 7 days, experimental animals with a constant body weight were selected, and 10 animals per group were divided and tested in 7 groups below (normal medium control group: average 248.90±8.23 g, 236.00˜261.00 g; EPD-induced group: average 248.14±9.85 g, 219.00˜272.00 g). […]
# (§3) Daily body weight was measured from 1 day before ligation, periodontal bone loss rate was measured on the final sacrifice day, some gingival tissue was extracted, changes in IL-1β, TNF-α, and MDA content were observed. The number of infiltrating inflammatory cells in the gingival tissue, periodontal bone volume (alveolar bone volume), and collagen content in the gums were measured.
# [2] = test system: infiltrating inflammatory cells in gingival tissue; experiment: Number of infiltrating inflammatory cells in gingival tissue, EPD rat model; details: EPD rats; extracts 200 mg/kg, IND 5 mg/kg, oral once daily for 10 days; FIG. 5
# Excerpt: as §1, §2, §3
# IL-1β = IL-1β content in gingival tissue, EPD rat model; details: EPD rats; extracts 200 mg/kg, IND 5 mg/kg, oral once daily for 10 days; top of FIG. 7
# Excerpt: as §1, §2, §3
# [3] = test system: periodontal bone mass (alveolar bone volume); experiment: Periodontal bone mass (alveolar bone volume), EPD rat model; details: EPD rats; extracts 200 mg/kg, IND 5 mg/kg, oral once daily for 10 days; FIG. 4
# Excerpt: as §1, §2, §3
# [4] = test system: periodontal bone loss (alveolar bone loss); experiment: Periodontal bone loss rate, tooth neck ligation rat periodontal disease (EPD) model; details: EPD rats; extracts 200 mg/kg, IND 5 mg/kg, oral once daily for 10 days from 24 h after ligation; FIG. 3
# Excerpt: as §1, §2, §3
# TNF-α = TNF-α content in gingival tissue, EPD rat model; details: EPD rats; extracts 200 mg/kg, IND 5 mg/kg, oral once daily for 10 days; bottom of FIG. 7
# Excerpt: as §1, §2, §3
# MDA = MDA content in gingival tissue, EPD rat model; details: EPD rats; extracts 200 mg/kg, IND 5 mg/kg, oral once daily for 10 days; FIG. 8
# Excerpt: as §1, §2, §3
structure (smiles),measurement,setting,value
"COc1ccc2c(c1)c(CC(=O)O)c(C)n2C(=O)c1ccc(Cl)cc1 [IND, Indomethacin]",change in proportion of collagen fibers in gingival tissue compared to the EPD control group,[1],148.65%
same,change in number of infiltrating inflammatory cells in gingival tissue compared to the EPD control group,[2],−57.61%
same,change in IL-1β content in gingival tissue compared to the EPD control group,IL-1β,−54.75%
same,change in periodontal bone mass compared to the EPD control group,[3],188.14%
same,change in periodontal bone loss rate compared to the EPD control group,[4],−26.49%
same,change in TNF-α content in gingival tissue compared to the EPD control group,TNF-α,−50.46%
same,change in MDA content in gingival tissue compared to the EPD control group,MDA,−42.44%
